Reference: US4522824A, “Indole derivatives of tryptamine and cardiovascular compositions thereof” (Sanofi, priority 1982, dated 1985)
Where a name gives a salt, the structure may show the parent alone.

Key:
[1] = In vivo pharmacological action in the anaesthetized dog (cardiac frequency, systemic arterial pressure, cardiac contractibility); conditions: Table II, parameter name is in the drawing [drawing 9], intravenous; for direct effect: first sign; for direct effect, [drawing 9]: second sign (wrapped to next line)
Protocol: (§1) In vivo pharmacological action in the dog
(§2) The dog is anaesthetized with sodium pentobarbital, administered by the intravenous route at the dose of 30 mg/kg. A cannula placed in the short saphenous vein allows the products to be injected intravenously. The animal is intubated and allowed to breathe spontaneously.
(§3) The cardiac frequency (C.F.) and the systemic arterial pressure (A.P.) and the parameter (dP/dt)p^-1 max which expresses the cardiac contractibility are recorded with the aid of catheters and the variations in these parameters are measured after intravenous injection of the product to be tested, each product being tested at increasing doses.

[2] = tested on: β-adrenergic receptors; assay: Antagonism of the effects of isoprenaline (tachycardia) in the anaesthetized dog; format: in vivo; conditions: dose inhibiting 80% of the tachycardia induced by i.v. isoprenaline, intravenous
Protocol: as §1, §2, §3
Antagonism of the effects of isoprenaline
The antagonism of the products with respect to the stimulating cardiovascular effects of isoprenaline on the β-adrenergic receptors was sought. The results are shown in Table II hereinafter and expressed in ID80 : this is the dose expressed in mg/kg which provokes inhibition of 80% of the tachycardia induced by the isoprenaline administered by the intravenous route.

[3] = Chronotropic effect in the dog subjected to reserpine and anaesthetized; format: in vivo; conditions: 1 mg/kg intravenous
[4] = tested on: α-adrenergic receptors; assay: Antagonism of the effects of noradrenaline (pressive response) in the dog; format: in vivo; conditions: dose inhibiting 50% of the pressive response to i.v. noradrenaline
Protocol: as §1, §2, §3
Antagonism of the effects of noradrenaline
The antagonism of the products with respect to the vascular effects provoked by the intravenous administration of noradrenaline on the α-adrenergic receptors was sought. The results shown in Table II are expressed in ID50 : this is the dose (mg/kg) which provokes the inhibition of 50% of the pressive response due to the intravenous administration of noradrenaline.

[5] = Cardiac frequency in the alert dog after oral administration; format: in vivo
Source text: The different results on the cardiovascular system obtained in the anaesthetized dog have been confirmed for certain products in the alert dog after administration of the product by the oral route.

Compound | direct effect [1] | direct effect, [drawing 9] [1] | ID80 isoprenaline, β-effect [2] | chronotropic effect [3] | ID50 [4] | effect on cardiac frequency [5]
CCOC(=O)c1cc2c(OCC(O)CNC(C)Cc3c[nH]c4ccccc34)cccc2[nH]1 (racemic) [SR41294A] | .dwnarw. | .dwnarw. | 0.1 mg/kg |  |  | 
CCOC(=O)c1cc2c(OCC(O)CNC(C)(C)Cc3c[nH]c4ccccc34)cccc2[nH]1 (stereo not drawn) [CM40593, 4-[3-[2-(3-indolyl)1,1-dimethylethylamino]2-hydroxypropoxy]2-ethoxycarbonyl indole] | = or .dwnarw. | .uparw. | 0.1 mg/kg | slight positive chronotropic effect | 0.1 mg/kg | 
CC(C)(Cc1c[nH]c2ccccc12)NCC(O)COc1cccc2[nH]c(C(N)=O)cc12 (stereo not drawn) [CM41105] | weak .dwnarw. | .uparw. | 0.1 mg/kg |  |  | 
CC(C)(Cc1c[nH]c2ccccc12)NCC(O)COc1cccc2[nH]c(CO)cc12 (stereo not drawn) [CM41165] | .dwnarw. | .dwnarw. | 0.05 mg/kg |  |  | 
CC(C)(Cc1c[nH]c2ccccc12)NCC(O)COc1cccc2[nH]c(C#N)cc12 (stereo not drawn) [SR41370A] | weak .dwnarw. | .uparw. | 0.05 mg/kg |  |  | 
CCOC(=O)c1cc2c(OCC(O)CNC(C)(C)Cc3c[nH]c4ccc(OC)cc34)cccc2[nH]1 (stereo not drawn) [SR41648] | .dwnarw. | .dwnarw. | 0.1 mg/kg |  |  | 
CCOC(=O)c1cc2c(OCC(O)CNC(C)(C)Cc3c[nH]c4ccc(C)cc34)cccc2[nH]1 (stereo not drawn) [SR41716A] |  |  |  |  |  | decrease the cardiac frequency or are without action thereon
CC(C)OC(=O)c1cc2c(OCC(O)CNC(C)(C)Cc3c[nH]c4ccccc34)cccc2[nH]1 (stereo not drawn) [SR41719A] |  |  |  |  |  | decrease the cardiac frequency or are without action thereon
CCOC(=O)c1cc2c(OCC(O)CNC(C)(C)Cc3c[nH]c4ccc(F)cc34)cccc2[nH]1 (stereo not drawn) [SR41779A] |  |  |  |  |  | decrease the cardiac frequency or are without action thereon
CCOC(=O)c1cc2c(OCC(O)CNC(C)(C)Cc3c[nH]c4ccc(Cl)cc34)cccc2[nH]1 (stereo not drawn) [SR41780A] |  |  |  |  |  | decrease the cardiac frequency or are without action thereon
CC(C)(Cc1c[nH]c2ccccc12)NCC(O)COc1cccc2[nH]c(C(=O)O)cc12 (stereo not drawn) [SR41828A] | = or .dwnarw. | = | 0.3 mg/kg |  |  | decrease the cardiac frequency or are without action thereon
CCCCN(CCCC)C(=O)c1cc2c(OCC(O)CNC(C)(C)Cc3c[nH]c4ccccc34)cccc2[nH]1 (stereo not drawn) [SR41830A] |  | .uparw. | 1 mg/kg |  |  | 
CCOC(=O)c1cc2c(OCC(O)CNC(C)(C)Cc3c[nH]c4ccc(C#N)cc34)cccc2[nH]1 (stereo not drawn) [SR41831A, 4-[3-[(5-cyano 3-indolyl)1,1-dimethylethylamino]2-hydroxypropoxy]2-ethoxycarbonyl indole, neutral fumarate] | .dwnarw. | .dwnarw. | 0.1 mg/kg |  |  | 
CCOC(=O)c1cc2c(OCC(O)CNC(C)(CO)Cc3c[nH]c4ccccc34)cccc2[nH]1 (stereo not drawn) [SR41832] | .dwnarw. | .dwnarw. | 0.1 mg/kg |  |  | 
